The source of these data is patent US20110300167A1, “CXCR5 RECEPTOR COMPOUNDS” (priority 2008, published 2011).

Holding throughout (format): cell-based
The target in assay [1] is T1, CXCR5 (Homo sapiens, UniProt P32302).
T1 sequence (P32302 1-372): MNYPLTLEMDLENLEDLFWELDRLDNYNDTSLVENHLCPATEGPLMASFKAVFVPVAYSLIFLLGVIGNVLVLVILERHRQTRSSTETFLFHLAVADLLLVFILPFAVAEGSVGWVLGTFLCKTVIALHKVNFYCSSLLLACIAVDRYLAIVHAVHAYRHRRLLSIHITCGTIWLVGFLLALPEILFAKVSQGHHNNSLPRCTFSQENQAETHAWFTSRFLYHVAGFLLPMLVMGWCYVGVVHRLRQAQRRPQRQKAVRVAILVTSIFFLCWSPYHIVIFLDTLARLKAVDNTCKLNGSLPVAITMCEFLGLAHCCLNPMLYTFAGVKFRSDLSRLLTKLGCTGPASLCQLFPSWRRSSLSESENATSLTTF
Briefly: Chemotaxis assay (Transwell, CXCL13 dose-response, 300.19 cells expressing CXCR5). The settings on record: 300.19 cells incubated with compound, compared to the vehicle control. An excerpt:
Chemotaxis assays were utilized to determine the effect of compound on the directed migration of cells in response to chemokine. 300.19 cells that express CXCR5 were placed in the upper chamber of a Transwell chemotaxis plate (Corning) and allowed to migrate through a polycarbonate membrane to a lower chamber containing the appropriate receptor-specific ligand. To test for antagonist or potentiating activity, cells were mixed with the desired concentration of compound prior to addition to the upper chamber. Conversely, agonist activity was determined by adding compound in the bottom chamber only without endogenous chemokine. The effect of compound is quantified by several parameters, including the extent of maximum response, the shift of agonist dose-response curves, and the area under the curve. […]
To initiate cell migration, the assembled transwell plate was placed in a 37° C., […] incubator for a specified time interval, typically between 30 and 120 minutes. […] To quantify migrated cells, plates were thawed at 37° C. in a humidified chamber, and then a sample volume was removed from each well and mixed with an equal volume of CyQuant (Invitrogen) working solution in opaque plates. The fluorescence intensity of each well represents the DNA content and is directly proportional to cell number. […]

Assay [2] addresses T1, CXCR5. The assay can be described thus: β-arrestin assay (DiscoverX eXpress β-arrestin cells expressing CXCR5). An excerpt: The β-arrestin assays developed by DiscoverX employed herein detect binding of a ligand to the GPCR by directly measuring β-arrestin recruitment to the GPCR independent of G-protein coupling. In this system, β-arrestin is fused to an N-terminal deletion mutant of β-gal (termed the enzyme acceptor of EA) and the GPCR of interest is fused to a smaller (42 amino acids), weakly complementing fragment. In cells that stably express these fusion proteins, ligand stimulation results in the interaction of β-arrestin and the tagged GPCR, forcing the complementation of the two β-gal fragments and resulting in the formation of a functional enzyme that converts substrate to detectable signal. In practice, eXpress β-arrestin cells expressing the receptor of interest are incubated with either compound alone (agonist mode), or compound plus native ligand (allosteric mode). A chemiluminescent substrate is then added to determine the extent of enzyme activity, and by inference, arrestin recruitment to GPCR.
The β-arrestin assays for CXCR5 Compound 14 were run in both agonist and allosteric modes. In agonist mode, the CXCR5-expressing eXpress β-arrestin cells were incubated with a dose curve of CXCR5 Compound 14 in the absence of CXCL13. […] In allosteric mode, Compound 14 is co-incubated with CXCL13, and the CXCR5 response of the eXpress cells is quantified.

The target in assay [3] is T1, CXCR5. Briefly: HTRF cAMP assay, inhibition of forskolin-stimulated cAMP production in HEK293 cells expressing hCXCR5. Further details: expressed in transfected cells; host or cells: HEK293. The settings on record: HEK293 cells expressing hCXCR5, 2 doses of compound (3 uM, 0.3 uM). The text has this: HTRF (homogeneous time resolved fluorescence) is a technology developed by Cisbio Bioassays based on TR-FRET (time-resolved fluorescence resonance energy transfer). Cisbio Bioassays has developed a wide selection of HTRF-based assays compatible with whole cells, thereby enabling functional assays run under more physiological conditions. cAMP kits are based on a competitive immunoassay using cryptate-labeled anti-cAMP antibody and d2-labeled cAMP. This assay allows the measurement of increase in intracellular cAMP upon Gs-coupled receptor activation as well as decrease in forskolin stimulated increase in cAMP upon Gi-coupled receptor activation. The IP-One assays are competitive immunoassays that use cryptate-labeled anti-IP1 monoclonal antibody and d2-labeled IP1. IP1 is a relatively stable downstream metabolite of IP3, and accumulates in cells following Gq receptor activation.
A cAMP assay was performed in the presence of Compound 14 to assess the activation of CXCR5 by the production of cAMP. HEK293 cells expressing hCXCR5 were incubated with CXCL13, and the inhibition of forskolin-stimulated cAMP production was quantified in cells in the absence and presence of Compound 14. […] This response is indicative of a reduction of decrease in forskolin-stimulated cAMP due to enhanced CXCR5 (Gi) activation.

As for Pal-HAVHAYRHRRLLS-amide [Compound 14], the “shift of the bell-shaped ligand dose-response curve (chemotaxis)” value on CXCR5 [1] (CXCL13 dose-response) is on record as “leftward shift”. For the same substance, at CXCR5 [1], the “AUC of the bell-shaped ligand dose-response curve (chemotaxis)” value is reported as “increase”. The “β-arrestin recruitment response curve, allosteric mode” value at CXCR5 [2] (compound co-incubated with CXCL13) was “left-shifted and higher maximal response curve”. For the same substance, the “β-arrestin recruitment response, agonist mode” value at CXCR5 [2] (dose curve of compound in the absence of CXCL13) is reported as “lack of response”. The “shift of cAMP responses to CXCL13 (inhibition of forskolin-stimulated cAMP production)” value on CXCR5 [3] is “shifted leftward in a dose-dependent manner”.
